Assay results published in article PMC10515483, “Structure–Reactivity Studies of 2-Sulfonylpyrimidines Allow Selective Protein Arylation” (Bioconjugate Chemistry, 2023).

Assay: NACME arylation rate constant (NMR)
Type: physicochemical
Excerpt: We employed nuclear magnetic resonance (NMR) and UV–vis to quantify the reactivity of our 2-SP derivatives and other representative electrophiles (Figure 2) against cysteine. NMR allowed straightforward determination of reaction rate constants through dual monitoring of the consumption of the warhead and formation of the product by integration of their respective NMR signals (Figures S1–S3). It simultaneously provided a direct readout on reaction specificity and hydrolytic stability of the warhead. All measurements were carried out in KPi buffer in the presence of 5% d^6-dmso, which is generally well-tolerated by a wide range of proteins in in vitro studies. N-acetylcysteine methylester (NACME) and L-glutathione (GSH) are useful model cysteine nucleophiles for in vitro studies of electrophilic agents.[32] Mixing reference electrophile 2-methylsulfonylpyrimidine (4q) with NACME or GSH in a 1:10 ratio (pseudo-first-order conditions) allowed extraction of accurate and reproducible second order rate constants (k). At pH 7.0, quantitative arylation of NACME occurred […] (k ≈ 4.5 × 10^–2 M^–1 s^–1), whereas GSH reacted approximately 3 times slower (k ≈ 1.6 × 10^–2 M^–1 s^–1; Figures S1–S3). […]
transferred to the NMR instrument for acquisition. 1H spectra (16 scans) were recorded every 10 minutes under water suppression conditions. Following acquisition, spectra were analysed using […]

SMILES: CS(=O)(=O)c1ncccn1 [4q, 2-methylsulfonylpyrimidine]
- times faster at pH 7.0 vs 6.5 (NACME): approximately 5 times
- second order rate constant k with NACME (pH 7.0, 1:10 ratio): ≈ 4.5 × 10^–2 M^–1 s^–1
